Assay results from EP4311550A1, “CHLOROPHYLLIDE DERIVATIVES FOR USE IN THE PREVENTION OR TREATMENT OF BACTERIAL INFECTION” (Université de Liège, priority 2022, dated 2024).
“And” between values parts separate entries of the source, which are not always exact repeats. Equal entries are not always repeated.

Key:
Assay type in all cases: cell-based
[1] = test system: Staphylococcus aureus (ATCC 25923); test: disk diffusion assay (growth inhibition halo); conditions: for inhibition diameter (in brackets), in presence of light: Petri dishes incubated in presence of light; for inhibition diameter (in brackets), in the dark: incubation in the dark; for activity of inhibition of S. aureus growth: preparative HPLC fractions redissolved in MeOH/H2O 75%, disk diffusion assay, Figure 3
Experimental: The antimicrobial activity of these extracts was tested against Gram-positive and Gram-negative bacteria, yeasts and fungi by the diffusion disk method. The bacteria tested were Staphylococcus aureus (ATCC 25923), Enterococcus faecium (ATCC 19434), Escherichia coli (ATCC 25922), Pseudomonas aeruginosa (ATCC 27853), Klebsiella pneumoniae (ATCC 13883), methicillin resistant S. aureus (MRSA, ATCC43300) and Bacillus subtilis 168. The yeasts tested were Candida albicans (MUCL 29800), Saccharomyces cerevisiae (MUCL 31497) and the fungus Aspergillus niger (IHEM 3415). Mueller-Hinton II culture medium was used for cultivating S.aureus, E. coli, P. aeruginosa and K. pneumoniae; Brain Heart infusion Broth for E. faecium; Yeast Peptone Dextrose Broth for C. albicans and A. niger and S. cerevisiae. Agar plates with the appropriate medium were inoculated from the glycerol stock culture and Petri dishes were incubated overnight at 37°C for bacteria and at 28°C during 48 hours for the other strains. Colonies or spores (forA. niger) were then resuspended in a sterile solution of NaCl 0.85% to obtain a OD600 between 0.08 and 0.1 at 600 nm (which corresponds to tube of 0.5 on McFarland scale). Sterile cotton buds were soaked with the suspension and the micro-organisms were spread onto the Petri dish. Five sterile disks of chromatography paper (Whatman 3MM) with a diameter of 6,0 mm were placed on the agar plate. Two disks were respectively used for positive (1 mg/ml kanamycin for S. aureus, B. subtilis, E. coli and K. pneumoniae; 25 mg/ml kanamycin for E. faecium; 0,01 mg/ml ciprofloxacin for P. aeruginosa; 20 and 0,01 mg/ml cycloheximide for A. niger and S. cerevisiae, respectively; 0,1 mg/ml nystatin for C. albicans) and negative (MeOH/H2O 75/25%) controls. The remaining disks were used to test the compound of interest in triplicate. On each disk, 10 µl were loaded on the paper disk in two steps (2 x 5 µl) letting the paper dry between the two loadings. The Petri dishes were then incubated as described above. The antimicrobial activity of compounds of interest was visualized by its growth inhibition halo. […] Table 1: Inhibition diameter of the crude methanol 75% extract of spray-dried powder of Scenedemus sp. S4 and freeze-dried powders of D. armatus S0
The injection volume was fixed at 100 µL, the sample temperature in the autosampler was 10°C and the column was thermostatized at 37°C. The effluent was monitored by a photodiode array detector (Waters 2998 PDA detector, detection range: 200-800 nm) and collected using an automatic fraction collector (Waters Fraction Collector III, volume fraction: 500 µl). The collected fractions were then dried by using a vacuum centrifuge (Speedvac vacuum concentrator Savant SPD-111V, Thermo Scientific) and redissolved in 500 µL of MeOH/H2O 75% (75/25 v/v) and assayed for their capacity to inhibit the growth of S. aureus (disk assay as described above). Several fractions were selected for their antibacterial activity and preparative purifications were then carried out to obtain higher quantities of these compounds to allow their identification and subsequently their characterization.
Preparative chromatography was carried out by using an AKTA explorer system (GE Healthcare) and a preparative reverse phase column (Nucleodur C18 Gravity, 5 µm particule size, length x internal diameter: 25 cm x 1 cm) The chromatogram was recorded at 3 different wavelengths: 230 nm, 430 nm and 650 nm. The volume injected was 2 ml and the flow rate fixed at 2 ml/min. The same buffers as those used during analytical separation were selected and the gradient adapted to the column volume. Fraction size was adapted in such a way that one peak corresponded to one collected fraction. These fractions were then dried with a vacuum centrifuge and redissolved in 500 µL of MeOH/H2O 75%. Figure 3 presents the chromatogram obtained at 430 nm. […]

[2] = test system: S. aureus (ATCC25923); test: minimum inhibitory concentration by microdilution method; conditions: 37°C, in the dark, 24 hours, Mueller-Hinton broth; 1:40 dilution factor of 58.03 µg/ml stock
Experimental: The minimum inhibitory concentration (MIC) of 13^2-hydroxy-methylchlorophyllide a for S. aureus was determined using the microdilution method. In a 48-well plate, 500 µl of Mueller-Hinton broth were placed in each well. Then, 500 µl of a dilute solution of 13^2-hydroxy-methylchlorophyllide a (stock solution in MeOH/H2O 75% diluted 5x by Mueller-Hinton broth) were added to the first well and serial 2-fold dilutions were made by transferring 500 µL from one well to the next. For the last well, 500 µl were discarded. A culture of S. aureus (ATCC25923) growing in exponential phase was diluted with sterile NaCl 0.85% (w/v) to obtain a bacterial suspension corresponding to 0.5 tube McFarland unit and then dispensed in 500 µl aliquots in the 48 well plate. After covering the 48-plate with its lid, it was incubated at 37°C under agitation and in the dark for 24 hours. The MIC was defined as the last dilution for which no visible bacterial growth was observed. The concentration of the active compound was determined on the basis of a calibration line obtained by injecting increasing volumes of a solution of pure chlorophyllide a standard on a reverse-phase HPLC column.

[3] = test system: S. aureus; test: growth curve (OD600) of an early exponential culture after addition of compound; conditions: 1x and 4x the MIC, directly after addition, in the dark
Experimental: To further characterize the antibacterial action of 13^2-hydroxy-methylchlorophyllide a, a S. aureus culture in its early exponential phase of growth was submitted to the action of the chlorophyllide derivative. 100 ml of Mueller-Hinton broth were inoculated with an overnight culture of S. aureus to obtain a bacterial density corresponding to an optical density at 600 nm (OD^600) = 0.05. This culture was then incubated at 37°C under orbital shaking (240 rpm) by using an Aquatron (Infors) shaker. Once the cells enter early exponential growth (OD^600= 0.2), the culture was subdivided into three 20 ml cultures. For two cultures, 13^2-hydroxy-methylchlorophyllide a solubilized in MeOH/H2O 75% was added to reach a final concentration equal to 1x and 4x the MIC, respectively. For the third culture (control culture), a corresponding volume of MeOH/H2O without any chlorophyllide compound was added. In Figure 7 the optical density as a function of time is presented. The addition of the compounds occurred after 75 minutes. […] OD^600 remained unchanged during the whole experiment. This observation supports the hypothesis that no bacterial cell lysis takes place and that the antibacterial activity of 13^2-derivative is either bacteriostatic or non-lytic bactericidal.

[4] = test system: S. aureus; test: viable count (CFU per ml) after addition of compound; conditions: 1 or 4 x MIC, in the dark
Experimental: To distinguish between these two antibacterial activities, the number of viable S. aureus were determined by counting the colonies forming units (CFU) per ml of culture before the addition of the chlorophyllide derivative (t=0 h) and after 2 and 4 hours. […] The negative control is represented in black, while cultures treated with 1x and 4xMIC of purified S fraction are hatched and dotted respectively. The data presented are the average values of three independent experiments.
For culture without addition of chlorophyllide derivative (negative control, only addition of MeOH/H2O 75%) S. aureus maintained its growth and CFU/ml increased. On the contrary, once 13^2-hydroxy-methylchlorophyllide a was added (1 or 4 x MIC value in MeOH/H2O 75%, final concentration), the number of CFU/ml decreased of at least four logarithmic steps (4 log10). This means that the chlorophyllide derivative killed, in the dark, more than 99.99% of the bacterial population. The same result was observed after 2 and 4 hours even if for this latter culture a slight return of bacterial growth was observed.

[5] = test system: red blood cell; test: sheep erythrocyte lysis assay; conditions: after 120 min, at 4 x MIC, 37°C
Experimental: Activity of 13^2-hydroxy-methylchlorophyllide a on red blood cell was determined using a sheep erythocyte lysis assay. The lytic action was assessed on defibrinated sheep blood (bioTRADING). The erythrocytes were harvested by centrifugation (1500 rpm, 5 min) and washed 10 times with phosphate buffer saline (PBS). The red blood cells were then diluted 25 times with PBS and washed two more times to obtain a colourless supernatant after a centrifugation at 3000 g for 5 minutes. Samples of 1 ml of red blood cells (25 times diluted) are transferred in Eppendorf tubes and the 13^2-hydroxy-methylchlorophyllide a, dissolved in MeOH/H2O 75% (v/v), was added to obtain a final concentration equal to 1x or 4x MIC. The tubes are then incubated at 37°C at 300 rpm by using a thermomixer HC (Starlab) and 100 µl samples were withdrawn at time 0, 5, 10, 15, 30, 60 and 120 min. […]
The erythrocyte lysis was highlighted by the presence of haemoglobin in the supernatant and quantified by measuring the absorbance of the supernatant at 540 nm by means of a microplate reader Tecan infinite200 pro. The percentage lysis was calculated as follows: % lysis = (AChl^540 −APBS^540)/(ASDS 0.1%^540) × 100 [formula] wherein AChl is the absorbance of the tested compound, APBS is the measured absorbance of the PBS solution and ASDS is the absorbance of the SDS solution (positive control), each at the wavelength of 540 nm. […]

| Compound | inhibition diameter (in brackets), in presence of light ([1]; disk diameter 6,0 mm) [cm] | inhibition diameter (in brackets), in the dark ([1]; disk diameter 6,0 mm) [cm] | activity of inhibition of S. aureus growth [1] | further results |
| --- | --- | --- | --- | --- |
| 13^2-hydroxy-methylchlorophyllide a [listing 1 of 2 here] | 1.12 | 0.80 | – | activity of inhibition of S. aureus growth ([1]; listed as S): most active; MIC [2]: 1.45 µg/mL; S. aureus growth (OD600) [3]: growth was stopped; decrease of the number of CFU/ml ([4]; after 2 and 4 hours): ≥ 4 log10; bacterial population killed [4]: more than 99.99%; percentage of red blood cell hemolysis [5]: lower than 10% |
| C=CC1=C(C)C2=NC1=CC1=NC(=Cc3[n-]c4c(c3C)=C([O-])C(C(=O)OC)C=4C3=NC(=C2)C(C)C3CCC(=O)OC)C(CC)=C1C.[Mg+2] (centres unmarked) [methyl chlorophyllide a, reference compound] | – | 0.60 | – | – |
| 13^2-hydroxy-methylchlorophyllide b [K] | – | – | active | – |
| NC[C@H]1O[C@H](O[C@H]2[C@H](O)[C@@H](O[C@H]3O[C@H](CO)[C@@H](O)[C@H](N)[C@H]3O)[C@H](N)C[C@@H]2N)[C@H](O)[C@@H](O)[C@@H]1O [Positive control, kanamycin, reference compound] | – | – | – | Inhibition diameter, Positive control ([1]; positive control disk on the plate of the named extract (1 mg/ml kanamycin for S. aureus), 10 µl per disk, disk diameter 6,0 mm): 2.10 cm and 1.62 cm |
| 13^2-hydroxy-methylchlorophyllide a [listing 2 of 2 here] | – | – | active | – |
| 13^2-hydroxy-methylchlorophyllide b | 0.87 | 0.73 | – | – |
| 13^2-hydroxy-chlorophyllide a [listing 1 of 2 here] | – | – | active | – |
| 13^2-hydroxy-chlorophyllide b [listing 1 of 2 here] | 0.70 | 0.72 | – | – |
| 13^2-hydroxy-chlorophyllide a [listing 2 of 2 here] | 0.86 | 0.69 | – | – |
| 13^2-hydroxy-chlorophyllide b [listing 2 of 2 here] | – | – | active | – |
